{"source": "patent US20240150301A1", "about": "“METHODS OF MODULATING ANDROGEN RECEPTOR CONDENSATES” (ETERN BIOPHARMA (SHANGHAI) CO., LTD., priority 2021, published 2024)", "key": {"[1]": {"molecular_target": "T1, AR (Homo sapiens, UniProt P10275)", "T1 construct": "expressed in transfected cells; host or cells: LNCaP", "T1 sequence (P10275 1-920)": "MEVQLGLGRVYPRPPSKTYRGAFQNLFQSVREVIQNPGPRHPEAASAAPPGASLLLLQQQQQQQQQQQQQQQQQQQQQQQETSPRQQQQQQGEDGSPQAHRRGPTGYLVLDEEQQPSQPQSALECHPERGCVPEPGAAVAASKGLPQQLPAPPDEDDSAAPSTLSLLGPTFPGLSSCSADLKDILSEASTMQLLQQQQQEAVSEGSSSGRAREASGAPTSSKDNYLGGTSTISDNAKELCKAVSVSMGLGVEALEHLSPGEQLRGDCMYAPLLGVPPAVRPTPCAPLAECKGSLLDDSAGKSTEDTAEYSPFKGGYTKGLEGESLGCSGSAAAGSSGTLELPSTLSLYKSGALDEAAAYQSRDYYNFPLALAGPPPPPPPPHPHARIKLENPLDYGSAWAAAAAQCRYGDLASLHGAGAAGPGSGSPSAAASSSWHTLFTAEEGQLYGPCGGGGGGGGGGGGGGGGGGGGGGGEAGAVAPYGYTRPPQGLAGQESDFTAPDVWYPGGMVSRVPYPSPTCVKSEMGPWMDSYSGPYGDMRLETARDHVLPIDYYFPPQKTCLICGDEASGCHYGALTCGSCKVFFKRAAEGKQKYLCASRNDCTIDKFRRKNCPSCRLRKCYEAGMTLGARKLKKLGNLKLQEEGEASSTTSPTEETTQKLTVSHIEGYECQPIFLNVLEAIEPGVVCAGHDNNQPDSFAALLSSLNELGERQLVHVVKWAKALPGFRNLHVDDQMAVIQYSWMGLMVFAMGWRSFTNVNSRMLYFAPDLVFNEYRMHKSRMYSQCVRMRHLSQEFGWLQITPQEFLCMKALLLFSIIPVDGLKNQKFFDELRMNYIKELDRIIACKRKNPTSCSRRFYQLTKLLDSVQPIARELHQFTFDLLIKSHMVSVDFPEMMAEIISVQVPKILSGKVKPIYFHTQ", "assay": "Live-cell imaging of AR puncta (LLPS) in LNCaP cells, AR-mEGFP", "type": "cell-based", "settings": "10 μM compound, 1 nM DHT", "protocol": "(§1) Cells were grown on 24-well glass bottom plate (Cellvis, P24-1.5H-N) and images were taken with the Leica TCS SP8 confocal microscopy system using a 100× oil objective (NA=1.4). Cells were imaged on a heated stage (37° C.) and supplemented with warmed (37° C.) humidified air. The microscope was enclosed in an incubation chamber heated to 37° C.\n(§2) For compounds treatment assay, LNCaP cells were transfected with an expression vector for AR (AR or AR F877L/T878A)-mEGFP using steroid hormone-free and phenol red-free RPMI media for 24 hours before compound treatment. After 10 μM compounds treatment for 3 hour, LNCaP cells were added with 1 nM DHT. For ligand-independent AR V7-mEGFP expressing LNCaP cells, starvation step is skipped and compounds were added 12 hours after transfection. The final concentration of DMSO was 0.1%. Cells were subjected to microscopic observation every 30 mins after DHT/compounds were added.\n(§3) Data was analyzed by images collected from 100 representative fields in each group. The spots quantification was performed based on the area and intensity of the spots through green (AR-mEGFP) channel. Fluorescent images were processed and assembled into figures using LAS X (Leica) and Fiji.\n(§4) After 10 μM compounds treatment for 3 hour, LNCaP cells were added with 1 nM DHT. […]"}, "[2]": {"molecular_target": "T2, AR F877L/T878A (Homo sapiens, UniProt P10275, F877L/T878A)", "T2 construct": "expressed in transfected cells; host or cells: LNCaP", "T2 sequence (P10275 1-920 F877L/T878A)": "T1 sequence (P10275 1-920) with F877L, T878A", "assay": "Live-cell imaging of AR puncta (LLPS) in LNCaP cells, AR F877L/T878A-mEGFP", "type": "cell-based", "settings": "10 μM compound, 1 nM DHT", "protocol": "as §1, §2, §3, §4"}}, "note": "Substitutions are numbered along the chain they refer to. “Also recorded” adds a separate entry of the source.", "data": [{"smiles": "CC(C)(c1ccc(C#Cc2cnc(NS(C)(=O)=O)nc2)cc1)c1cc(Cl)c(OCCCl)c(C#N)c1", "note": "[Compound 60, N-(5-((4-(2-(3-chloro-4-(2-chloroethoxy)-5-cyanophenyl)propan-2-yl)phenyl)ethynyl)pyrimidin-2-yl)methanesulfonamide]", "values": [{"measurement": "puncta formation / LLPS of AR", "setting": "[1]", "result": "could suppress the phase separation; also recorded: abolished the puncta formation"}, {"measurement": "puncta formation / LLPS of enzalutamide-resistant AR mutant F877L/T878A", "setting": "[2]", "result": "could suppress the phase separation; also recorded: abolished the puncta formation; also recorded: impaired the LLPS"}]}]}
